Source: patent publication US20220127247A1, “N-(PYRIDIN-2-YL)PYRIDINE-SULFONAMIDE DERIVATIVES AND THEIR USE IN THE TREATMENT OF DISEASE” (NOVARTIS AG, priority 2019, published 2022)

Target: T1, delF508-CFTR (Homo sapiens, UniProt P13569, DEL508-508)
T1 construct: expressed in transfected cells
Assay: Measurement of delF508-CFTR-HRP surface expression in CFBE41o- cells
Assay type: cell-based
Details: for EC50: HRP-tagged delF508-CFTR in CFBE41o- cells, 24 h with compound, luminescence, 10-point curve, top 10 μM; for Emax: efficacy relative to reference compound 3-(6-(1-(2,2-difluorobenzo[d][1,3]dioxol-5-yl)cyclopropane-1-carboxamido)-3-methylpyridin-2-yl)benzoic acid, CFBE41o- cells, 24 h, read-out: DelF508-CFTR-HRP Amax %
Source text: Measurement of delF508-CFTR-HRP Surface Expression in CFBE41o-Cells
This assay quantifies the cell surface expressions of the mutant CFTR channel using an extracellular HRP tag.
A cellular assay was developed to measure surface expression of horseradish peroxidase (HRP) tagged delF508-CFTR in the human bronchial epithelial immortalized CFBE41o-cell line (Phuan, P. W., et al, (2014) Molecular Pharmacology 86:42-51). Specifically, the HRP sequence was inserted into the fourth extracellular loop of delF508-CFTR and stably expressed in CFBE41o-cells. Cells were seeded in 384 well plate at a density of 5000 cells/well and incubated at 37° C. for 12 to 24 hours in medium (Gibco MEM #11095, 10% FBS, 10 mM HEPES, […], 200 μg/mL G418, 3 μg/mL Puromycin). The delF508-CFTR-HRP expression was induced with 500 ng/mL doxycycline (Sigma D-9891, dissolved in H2O and sterile filtered) in medium and the cells were incubated at 37° C. for 48 h. Old medium was removed and fresh medium was added containing 500 ng/mL doxycycline and unknown test compound at required test concentration in DMSO, not exceeding 0.5% final DMSO concentration. The highest concentration tested was 10 μM with a 10-point concentration response curve using a 3-fold dilution. After addition of compounds, the cells were incubated for 24 h at 37° C. On the final day, cells were washed four times in PBS containing 1 mM MgCl2 and 0.1 mM CaCl2. HRP-Substrate (SuperSignal ELISA Pico, Fisher #37069) 20 μl/well was added and the luminescence signal was determined (Viewlux, Perkin Elmer). Light was emitted upon addition of exogenous HRP-Substrate only when delF508-CFTR-HRP reached the cell surface and the HRP tag was accessible to the HRP-Substrate (note: HRP-Substrate cannot cross the lipid bilayer to reach delF508-CFTR-HRP misfolded within the cell).
The median activity for the lowest concentration of the compounds on each assay plate was calculated and this value was used to normalize the signal for each well on the respective plate. Three replicates at each concentrations for every compound were run to determine one EC50. The median value was determined and used to calculate compound activities as described below. Effective half maximal values (EC50) were calculated for each compound by performing logistic regression on measured dose-response data points using the equation: […]
where “Y” is the observed activity, “Bottom” is the lowest observed value, “Top” is the highest observed value, and the “Hill coefficient” gives the largest absolute value of the slope. The curve fitting is carried out by a curve fitting program implemented at GNF using Matlab (Mathworks).
The dose response curves also were used to calculate Fold Change (FC) using the equation: […]
Compound efficacy relative to the reference compound 3-(6-(1-(2,2-difluorobenzo[d][1,3]dioxol-5-yl)cyclopropane-1-carboxamido)-3-methylpyridin-2-yl)benzoic acid was determined using the following formula: […]

T1 sequence (P13569 with tags, fused parts or gaps DEL508-508): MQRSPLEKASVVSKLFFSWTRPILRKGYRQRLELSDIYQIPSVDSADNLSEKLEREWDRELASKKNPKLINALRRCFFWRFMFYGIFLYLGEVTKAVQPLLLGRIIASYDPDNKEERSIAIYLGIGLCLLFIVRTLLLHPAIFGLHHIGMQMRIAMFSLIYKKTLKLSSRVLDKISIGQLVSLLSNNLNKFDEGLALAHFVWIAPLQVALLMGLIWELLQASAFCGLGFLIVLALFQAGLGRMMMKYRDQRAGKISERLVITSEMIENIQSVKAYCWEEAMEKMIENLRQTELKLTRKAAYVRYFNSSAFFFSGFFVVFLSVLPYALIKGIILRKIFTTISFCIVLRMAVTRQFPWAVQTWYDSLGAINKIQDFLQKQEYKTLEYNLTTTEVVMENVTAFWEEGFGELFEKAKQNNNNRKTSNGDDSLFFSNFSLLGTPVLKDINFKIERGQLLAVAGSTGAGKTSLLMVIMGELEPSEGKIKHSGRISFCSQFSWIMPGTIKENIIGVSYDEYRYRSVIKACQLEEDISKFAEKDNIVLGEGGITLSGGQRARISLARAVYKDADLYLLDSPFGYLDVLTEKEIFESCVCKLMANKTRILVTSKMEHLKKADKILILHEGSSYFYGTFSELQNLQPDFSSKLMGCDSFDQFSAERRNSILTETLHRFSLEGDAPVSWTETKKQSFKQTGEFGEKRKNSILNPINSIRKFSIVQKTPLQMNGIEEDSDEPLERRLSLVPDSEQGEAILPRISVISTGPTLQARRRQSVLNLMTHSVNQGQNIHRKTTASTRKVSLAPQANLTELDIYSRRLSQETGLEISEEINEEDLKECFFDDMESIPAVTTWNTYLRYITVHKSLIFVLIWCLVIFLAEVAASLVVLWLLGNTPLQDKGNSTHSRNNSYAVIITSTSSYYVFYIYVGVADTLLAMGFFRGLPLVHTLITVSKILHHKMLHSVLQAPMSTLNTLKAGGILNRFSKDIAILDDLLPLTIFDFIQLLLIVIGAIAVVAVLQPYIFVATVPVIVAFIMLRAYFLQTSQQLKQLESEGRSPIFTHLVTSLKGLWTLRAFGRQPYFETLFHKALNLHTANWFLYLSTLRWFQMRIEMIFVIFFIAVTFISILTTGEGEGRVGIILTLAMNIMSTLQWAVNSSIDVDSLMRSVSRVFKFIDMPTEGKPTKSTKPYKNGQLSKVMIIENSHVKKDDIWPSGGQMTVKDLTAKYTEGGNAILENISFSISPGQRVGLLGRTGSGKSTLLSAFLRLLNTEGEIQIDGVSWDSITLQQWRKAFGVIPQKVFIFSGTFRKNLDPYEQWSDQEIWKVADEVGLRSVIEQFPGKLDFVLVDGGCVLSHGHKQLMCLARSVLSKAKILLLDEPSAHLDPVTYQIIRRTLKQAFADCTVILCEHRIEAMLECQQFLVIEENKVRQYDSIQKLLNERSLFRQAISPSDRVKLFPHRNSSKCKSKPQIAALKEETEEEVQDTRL

| SMILES | EC50 | Emax |
| --- | --- | --- |
| CC1(C(=O)O)CCN(c2cccc(S(=O)(=O)Nc3ccc(Cl)c(-c4ccccc4-c4ccccc4)n3)n2)CC1 [Compound 19, 1-(6-(N-(6-([1,1′-biphenyl]-2-yl)-5-chloropyridin-2-yl)sulfamoyl)pyridin-2-yl)-4-methylpiperidine-4-carboxylic Acid] | 2240 nM | 378% |
| COc1ccc(Cl)c(-c2nc(NS(=O)(=O)c3cccc(N4CCN(c5ccc(C(=O)O)cc5)CC4)n3)ccc2C(F)(F)F)c1 [Compound 21, 4-(4-(6-(N-(6-(2-chloro-5-methoxyphenyl)-5-(trifluoromethyl)pyridin-2-yl)sulfamoyl)pyridin-2-yl)piperazin-1-yl)benzoic Acid] | 2930 nM | 361% |
| CC1(C(=O)O)CCN(c2cccc(S(=O)(=O)Nc3ccc(C(F)(F)F)c(-c4ccccc4-c4ccncc4)n3)n2)CC1 [Compound 27, 4-methyl-1-(6-(N-(6-(2-(pyridin-4-yl)phenyl)-5-(trifluoromethyl)pyridin-2-yl)sulfamoyl)pyridin-2-yl)piperidine-4-carboxylic Acid] | 2070 nM | 189% |
| CC(C)c1ccncc1-c1nc(NS(=O)(=O)c2cccc(N3CCCC(C)(C(=O)O)C3)n2)ccc1C(F)(F)F (centres unmarked) [Compound 30, 1-(6-(N-(4′-isopropyl-3-(trifluoromethyl)-[2,3′-bipyridin]-6-yl)sulfamoyl)pyridin-2-yl)-3-methylpiperidine-3-carboxylic Acid] | 2220 nM | 303% |
| CC(C)c1ccccc1-c1nc(NS(=O)(=O)c2cccc(N3CCC(OCC(=O)O)CC3)n2)ccc1C(F)(F)F [Compound 31, 2-((1-(6-(N-(6-(2-isopropylphenyl)-5-(trifluoromethyl)pyridin-2-yl)sulfamoyl)pyridin-2-yl)piperidin-4-yl)nxy)acetic Acid] | 2140 nM | 443% |
| Cc1ccccc1-c1nc(NS(=O)(=O)c2cccc(N(C)CCC(=O)O)n2)ccc1C(F)(F)F [Compound 34, 3-(methyl(6-(N-(6-(o-tolyl)-5-(trifluoromethyl)pyridin-2-yl)sulfamoyl)pyridin-2-yl)amino)propanoic Acid] | 2580 nM | 785% |
| Cc1ccccc1-c1nc(NS(=O)(=O)c2cccc(NCCC(=O)O)n2)ccc1C(F)(F)F [Compound 35, 3-((6-(N-(6-(o-tolyl)-5-(trifluoromethyl)pyridin-2-yl)sulfamoyl)pyridin-2-yl)amino)propanoic acid] | 2600 nM | 209% |
| Cc1ccccc1-c1nc(NS(=O)(=O)c2cccc(NCCCC(=O)O)n2)ccc1C(F)(F)F [Compound 36, 4-((6-(N-(6-(o-tolyl)-5-(trifluoromethyl)pyridin-2-yl)sulfamoyl)pyridin-2-yl)amino)butanoic Acid] | 2960 nM | 222% |
| O=C(O)CCNc1cccc(S(=O)(=O)Nc2ccc(C(F)(F)F)c(-c3ccccc3C3CC3)n2)n1 [Compound 39, 3-((6-(N-(6-(2-cyclopropylphenyl)-5-(trifluoromethyl)pyridin-2-yl)sulfamoyl)pyridin-2-yl)amino)propanoic Acid] | 3260 nM | 257% |

More lines, in order of falling EC50, values ahead:

| EC50 | Emax | SMILES |
| --- | --- | --- |
| 2050 nM | 982% | Cc1ccccc1-c1nc(NS(=O)(=O)c2cccc(N(C)CCCC(=O)O)n2)ccc1C(F)(F)F [Compound 37, 4-(methyl(6-(N-(6-(o-tolyl)-5-(trifluoromethyl)pyridin-2-yl)sulfamoyl)pyridin-2-yl)amino)butanoic Acid] |
| 1800 nM | 372% | Cc1ccccc1-c1nc(NS(=O)(=O)c2cccc(N3CCC(CC(=O)O)C3)n2)ccc1C(F)(F)F (centres unmarked) [Compound 32, 2-(1-(6-(N-(6-(o-tolyl)-5-(trifluoromethyl)pyridin-2-yl)sulfamoyl)pyridin-2-yl)pyrrolidin-3-yl)acetic Acid] |
| 1700 nM | 742% | CN(CCC(=O)O)c1cccc(S(=O)(=O)Nc2ccc(C(F)(F)F)c(-c3ccccc3C3CC3)n2)n1 [Compound 38, 3-((6-(N-(6-(2-cyclopropylphenyl)-5-(trifluoromethyl)pyridin-2-yl)sulfamoyl)pyridin-2-yl)(methyl)amino)propanoic Acid] |
| 1450 nM | 442% | CC1(C(=O)O)CCN(c2cccc(S(=O)(=O)Nc3ccc(C(F)(F)F)c(-c4ccccc4Oc4ccccc4)n3)n2)CC1 [Compound 28, 4-methyl-1-(6-(N-(6-(2-phenoxyphenyl)-5-(trifluoromethyl)pyridin-2-yl)sulfamoyl)pyridin-2-yl)piperidine-4-carboxylic Acid] |
| 1310 nM | 909% | CC1(CC(=O)O)CCN(c2cccc(S(=O)(=O)Nc3ccc(C(F)(F)F)c(-c4ccccc4C4CCC4)n3)n2)CC1 [Compound 24, 2-(1-(6-(N-(6-(2-cyclobutylphenyl)-5-(trifluoromethyl)pyridin-2-yl)sulfamoyl)pyridin-2-yl)-4-methylpiperidin-4-yl)acetic Acid] |
| 1300 nM | 969% | CC1(C(=O)O)CCCN(c2cccc(S(=O)(=O)Nc3ccc(Cl)c(-c4ccccc4-c4ccccc4)n3)n2)C1 (centres unmarked) [Compound 29, 1-(6-(N-(6-([1,1′-biphenyl]-2-yl)-5-chloropyridin-2-yl)sulfamoyl)pyridin-2-yl)-3-methylpiperidine-3-carboxylic Acid] |
| 1280 nM | 320% | O=C(O)CC1CCN(c2cccc(S(=O)(=O)Nc3ccc(C(F)(F)F)c(-c4ccccc4C4CC4)n3)n2)C1 (centres unmarked) [Compound 33, 2-(1-(6-(N-(6-(2-cyclopropylphenyl)-5-(trifluoromethyl)pyridin-2-yl)sulfamoyl)pyridin-2-yl)pyrrolidin-3-yl)acetic Acid] |
| 1260 nM | – | CC1(CC(=O)O)CCN(c2cccc(S(=O)(=O)Nc3ccc(C(F)(F)F)c(-c4ccccc4-c4ccccc4)n3)n2)CC1 [Compound 23, 2-(1-(6-(N-(6-([1,1′-biphenyl]-2-yl)-5-(trifluoromethyl)pyridin-2-yl)sulfamoyl)pyridin-2-yl)-4-methylpiperidin-4-yl)acetic acid] |
| 1060 nM | 485% | CCc1ccccc1-c1nc(NS(=O)(=O)c2cccc(N3CCC(C)(CC(=O)O)CC3)n2)ccc1C(F)(F)F [Compound 22, 2-(1-(6-(N-(6-(2-ethylphenyl)-5-(trifluoromethyl)pyridin-2-yl)sulfamoyl)pyridin-2-yl)-4-methylpiperidin-4-yl)acetic Acid] |
| 1000 nM | 780% | CC(C)c1ccccc1-c1nc(NS(=O)(=O)c2cccc(N3CCC(C)(CC(=O)O)CC3)n2)ccc1C(F)(F)F [Compound 25, 2-(1-(6-(N-(6-(2-isopropylphenyl)-5-(trifluoromethyl)pyridin-2-yl)sulfamoyl)pyridin-2-yl)-4-methylpiperidin-4-yl)acetic Acid] |
| 830 nM | 829% | CC1(CC(=O)O)CCN(c2cccc(S(=O)(=O)Nc3ccc(C(F)(F)F)c(-c4ccccc4C(C)(C)C)n3)n2)CC1 [Compound 26, 2-(1-(6-(N-(6-(2-(tert-butyl)phenyl)-5-(trifluoromethyl)pyridin-2-yl)sulfamoyl)pyridin-2-yl)-4-methylpiperidin-4-yl)acetic Acid] |
| 800 nM | 973% | CC1(C(=O)O)CCN(c2cccc(S(=O)(=O)Nc3ccc(C(F)(F)F)c(-c4ccccc4-c4ccccc4)n3)n2)CC1 [Compound 20, 1-(6-(N-(6-([1,1′-biphenyl]-2-yl)-5-(trifluoromethyl)pyridin-2-yl)sulfamoyl)pyridin-2-yl)-4-methylpiperidine-4-carboxylic Acid] |
